In US11230549B2, “Quinolino-pyrrolidin-2-one derivative and application thereof” (MEDSHINE DISCOVERY INC., priority 2018, dated 2022):

Columns and labels:
Human-derived ATM kinase = target: T1, Human-derived ATM kinase (Homo sapiens, UniProt Q13315); test: ATM enzyme activity test (HTRF, phosphorylation of GST-cMyc-p53); type: biochemical
T1 construct: Eurofins (contract laboratory that ran the test)
Protocol: (§1) The compounds of the present disclosure used for experiments are all prepared in-house, and their chemical names and structural formulas are shown in the preparation examples of each compound. The experimental tests were carried out by a UK company Eurofins, and the experimental results were provided by the company. The following experimental processes were also provided by the company.
(§2) Human-derived ATM kinase was incubated in a buffer solution containing 30 nM of GST-cMyc-p53 and Mg/ATP. The concentration of Mg/ATP was determined according to different needs. The reaction was initiated by adding a Mg/ATP complex. After incubating for about 30 minutes at room temperature, a stop solution containing EDTA was added to stop the reaction. Finally, for phosphorylated p53, a detection buffer containing a d2-labeled anti-GST monoclonal antibody and an europium-labeled phosphorylated Ser15 antibody was added. Then time-resolved fluorescence mode was used to read a detection disk, and a homogeneous time-resolved fluorescence (HTRF) signal was obtained by calculating formula HTRF=10000×(Em665 nm/Em620 nm).

[1] = system: human lung cancer H446 cell subcutaneous xenograft tumor; test: In vivo efficacy of ATM inhibitors and etoposide in H446 subcutaneous xenograft model; design: species or system female BALB/c nude mouse; details: etoposide 15 mg/kg IP, ATM inhibitor 5 mg/kg PO; for Tumor volume (mm^3) / Tumor volume (mm^3) (Day 26): Mean ± SEM; for T/C (%) tumor proliferation rate / TGI (%) tumor growth inhibition rate: Day 26; for Tumor volume (mm^3) (Day 26): Day 26 after administration
Protocol: Evaluation of the in vivo efficacy of the test drug ATM inhibitor and etoposide in a BALB/c nude mouse model with human lung cancer H446 cell subcutaneous xenograft tumor via intraperitoneal or oral administration.
5% CO2 culture. Conventional digestion treatment with pancreatin-EDTA for passage was carried out twice a week. When the cell saturation was 80% to 90%, the cells were collected, counted and inoculated.
0.2 mL 5×10^6 of H446 cells (1:1 plus matrigel) were subcutaneously inoculated on the right back of each nude mouse. The grouping and administration were started when the average tumor volume reached 125 mm^3 (Table).
The experimental index was to investigate whether the tumor growth was inhibited, delayed or cured. Tumor diameter was measured twice a week with a vernier caliper. The calculation formula of tumor volume: V=0.5a×b^2, wherein a and b represented the long and short diameters of the tumor, respectively.
Tumor proliferation rate T/C (%): wherein T is the average tumor volume obtained from the last measurement (PG-D26) of the treatment group, and C is the average tumor volume obtained from the last measurement (PG-D26) of the control group.
Mean value and standard error (SEM) of the tumor volume of each group at each time point were included (specific data is shown in tables). […] The comparison between two groups was analyzed by T-test, and the comparison between three or more groups was analyzed by one-way ANOVA. If there was heterogeneity of variance, the Games-Howell test was applied. If there was homogeneity of variance, the Dunnet (2-sided) test was used for analysis.

[2] = target: T2, Human-derived DNA-PK kinase (Homo sapiens, UniProt P78527); test: DNA-PK enzyme activity test (HTRF, phosphorylation of GST-cMyc-p53); type: biochemical
T2 construct: Eurofins (contract laboratory that ran the test)
Protocol: as §1
as §2, with “Human-derived DNA-PK” for “Human-derived ATM”, “containing 50” for “containing 30”

T1 sequence (Q13315 whole entry): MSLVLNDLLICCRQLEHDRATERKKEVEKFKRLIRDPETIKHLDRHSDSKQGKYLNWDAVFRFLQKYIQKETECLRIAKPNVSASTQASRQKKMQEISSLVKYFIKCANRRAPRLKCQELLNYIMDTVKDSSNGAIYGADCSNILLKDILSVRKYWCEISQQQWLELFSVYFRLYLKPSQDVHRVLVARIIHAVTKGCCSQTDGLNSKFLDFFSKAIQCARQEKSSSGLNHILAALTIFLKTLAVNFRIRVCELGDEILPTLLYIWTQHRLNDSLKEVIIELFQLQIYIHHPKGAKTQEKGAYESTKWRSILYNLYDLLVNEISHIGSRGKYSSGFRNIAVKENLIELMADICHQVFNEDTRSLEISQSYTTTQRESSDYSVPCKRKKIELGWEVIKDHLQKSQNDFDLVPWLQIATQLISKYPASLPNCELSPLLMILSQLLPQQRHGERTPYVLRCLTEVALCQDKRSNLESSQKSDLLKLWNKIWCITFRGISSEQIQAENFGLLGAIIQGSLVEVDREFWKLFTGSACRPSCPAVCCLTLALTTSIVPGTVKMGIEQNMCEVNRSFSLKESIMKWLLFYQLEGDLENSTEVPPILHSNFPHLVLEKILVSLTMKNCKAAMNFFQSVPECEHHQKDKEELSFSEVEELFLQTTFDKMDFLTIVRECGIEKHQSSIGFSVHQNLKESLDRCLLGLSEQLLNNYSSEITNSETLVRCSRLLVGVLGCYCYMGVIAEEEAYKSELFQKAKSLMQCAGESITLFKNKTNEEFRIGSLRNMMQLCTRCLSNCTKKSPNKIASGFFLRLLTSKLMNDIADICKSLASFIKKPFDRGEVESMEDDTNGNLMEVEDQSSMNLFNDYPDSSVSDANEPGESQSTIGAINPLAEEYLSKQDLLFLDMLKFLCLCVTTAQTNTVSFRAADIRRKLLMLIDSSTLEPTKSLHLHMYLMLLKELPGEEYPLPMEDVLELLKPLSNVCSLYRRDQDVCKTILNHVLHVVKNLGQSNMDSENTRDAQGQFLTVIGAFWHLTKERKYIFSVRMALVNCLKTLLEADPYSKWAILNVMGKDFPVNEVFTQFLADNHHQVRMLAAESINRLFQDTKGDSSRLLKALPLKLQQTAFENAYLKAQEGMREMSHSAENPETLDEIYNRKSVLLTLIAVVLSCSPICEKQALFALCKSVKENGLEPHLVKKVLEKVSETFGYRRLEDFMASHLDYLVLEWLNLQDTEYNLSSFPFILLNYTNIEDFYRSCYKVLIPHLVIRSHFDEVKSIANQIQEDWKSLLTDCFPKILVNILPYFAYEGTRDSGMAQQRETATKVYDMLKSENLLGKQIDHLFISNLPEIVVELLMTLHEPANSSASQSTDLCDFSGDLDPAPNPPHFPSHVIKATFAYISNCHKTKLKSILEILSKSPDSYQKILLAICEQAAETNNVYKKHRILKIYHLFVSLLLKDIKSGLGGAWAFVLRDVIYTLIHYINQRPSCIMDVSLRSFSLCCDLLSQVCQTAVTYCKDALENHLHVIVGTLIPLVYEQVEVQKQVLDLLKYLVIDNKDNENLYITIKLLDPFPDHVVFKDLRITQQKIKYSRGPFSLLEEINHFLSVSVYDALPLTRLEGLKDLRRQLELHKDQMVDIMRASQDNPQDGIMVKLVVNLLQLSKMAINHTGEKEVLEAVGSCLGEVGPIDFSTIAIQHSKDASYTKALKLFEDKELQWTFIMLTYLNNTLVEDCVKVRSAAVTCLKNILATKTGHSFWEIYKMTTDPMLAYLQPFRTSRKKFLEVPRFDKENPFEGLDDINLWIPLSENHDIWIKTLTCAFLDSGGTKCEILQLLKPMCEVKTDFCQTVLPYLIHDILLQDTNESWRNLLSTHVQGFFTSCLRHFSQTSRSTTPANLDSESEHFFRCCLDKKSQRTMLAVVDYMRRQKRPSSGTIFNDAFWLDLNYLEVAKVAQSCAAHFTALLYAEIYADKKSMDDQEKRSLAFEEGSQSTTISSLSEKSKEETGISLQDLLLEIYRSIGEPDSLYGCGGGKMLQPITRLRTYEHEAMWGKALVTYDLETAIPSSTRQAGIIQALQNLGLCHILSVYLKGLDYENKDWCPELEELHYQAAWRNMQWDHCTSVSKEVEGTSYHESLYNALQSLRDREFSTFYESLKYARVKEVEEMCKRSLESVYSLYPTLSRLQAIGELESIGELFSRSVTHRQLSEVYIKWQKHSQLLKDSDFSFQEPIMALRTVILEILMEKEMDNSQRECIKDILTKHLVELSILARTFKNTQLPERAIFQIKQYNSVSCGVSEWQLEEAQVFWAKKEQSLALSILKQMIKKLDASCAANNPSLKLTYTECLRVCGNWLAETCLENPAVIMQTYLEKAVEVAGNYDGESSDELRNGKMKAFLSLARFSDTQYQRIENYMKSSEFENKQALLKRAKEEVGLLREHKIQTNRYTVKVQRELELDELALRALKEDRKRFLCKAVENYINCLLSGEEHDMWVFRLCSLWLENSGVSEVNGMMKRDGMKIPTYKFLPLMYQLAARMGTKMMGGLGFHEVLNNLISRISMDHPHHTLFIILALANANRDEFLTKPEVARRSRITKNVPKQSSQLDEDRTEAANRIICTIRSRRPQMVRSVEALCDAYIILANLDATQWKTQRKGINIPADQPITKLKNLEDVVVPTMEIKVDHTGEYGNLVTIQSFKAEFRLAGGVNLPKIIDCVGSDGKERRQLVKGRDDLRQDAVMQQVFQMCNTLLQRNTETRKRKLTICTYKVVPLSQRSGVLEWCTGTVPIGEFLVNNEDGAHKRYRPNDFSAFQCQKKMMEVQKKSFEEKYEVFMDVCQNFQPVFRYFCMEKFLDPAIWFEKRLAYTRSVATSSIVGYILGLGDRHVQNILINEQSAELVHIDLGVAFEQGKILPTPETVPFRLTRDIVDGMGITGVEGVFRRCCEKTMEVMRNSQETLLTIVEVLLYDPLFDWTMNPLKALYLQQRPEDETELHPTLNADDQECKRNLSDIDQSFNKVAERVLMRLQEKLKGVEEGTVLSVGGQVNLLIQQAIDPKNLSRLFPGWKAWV

SMILES | IC50 (Human-derived ATM kinase) | Tumor volume (mm^3) ([1]; Day 0 after administration) | Tumor volume (mm^3) ([1]; Day 3 after administration) | Tumor volume (mm^3) ([1]; Day 7 after administration) | Tumor volume (mm^3) ([1]; Day 10 after administration) | Tumor volume (mm^3) ([1]; Day 14 after administration) | Tumor volume (mm^3) ([1]; Day 17 after administration) | Tumor volume (mm^3) ([1]; Day 21 after administration) | T/C (%) tumor proliferation rate [1] | TGI (%) tumor growth inhibition rate [1] | Tumor volume (mm^3) (Day 26) [1] | IC50 [2]
CN1C(=O)C2(CCOCC2)c2c1cnc1cc(F)c(-c3ccc(OCCCN4CCCCC4)nc3)cc21 [Example 32] | 2 nM | 125 ± 7 mm^3 | 138 ± 6 mm^3 | 229 ± 10 mm^3 | 359 ± 36 mm^3 | 644 ± 83 mm^3 | 974 ± 129 mm^3 | 1240 ± 157 mm^3 | 73.86% | 27.36% | 2054 ± 221 mm^3 | 561 nM
COc1cc([C@@H]2c3cc4c(cc3[C@@H](O[C@@H]3O[C@@H]5CO[C@@H](C)O[C@H]5[C@H](O)[C@H]3O)[C@H]3COC(=O)[C@H]23)OCO4)cc(OC)c1O [Etoposide, etoposide, reference compound] |  | 125 ± 8 mm^3 | 132 ± 11 mm^3 | 259 ± 37 mm^3 | 364 ± 47 mm^3 | 552 ± 66 mm^3 | 851 ± 84 mm^3 | 1021 ± 112 mm^3 | 59.93% | 41.95% | 1667 ± 193 mm^3 | 
